Assay [1] concerns the target T1, 17β-HSD3 (Homo sapiens, UniProt P37058).
T1 construct: expressed in transfected cells; host or cells: HEK-293 (homogenate)
T1 sequence (P37058 1-310): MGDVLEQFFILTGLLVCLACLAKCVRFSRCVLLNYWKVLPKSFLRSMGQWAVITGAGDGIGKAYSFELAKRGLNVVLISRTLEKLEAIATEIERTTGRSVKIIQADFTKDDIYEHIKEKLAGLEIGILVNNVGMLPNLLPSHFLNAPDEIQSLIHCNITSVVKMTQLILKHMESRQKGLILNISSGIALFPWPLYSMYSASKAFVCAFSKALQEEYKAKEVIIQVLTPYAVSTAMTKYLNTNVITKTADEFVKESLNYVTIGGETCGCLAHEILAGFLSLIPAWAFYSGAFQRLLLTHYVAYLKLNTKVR
Kind of assay: Inhibition of 17β-HSD3 in intact HEK-293 cells. It is filed as cell-based. The settings on record: for inhibition at 0.1 µM / inhibition at 1 µM: HEK293, 1 h.

Assay [2] has as its target T1, 17β-HSD3. Put plainly: Inhibition of 17β-HSD3 in homogenated HEK-293 cells. It is filed as biochemical.
Setting [3] is: Table 2 (17β-HSD3), read-out: Intact cells (%) (0.1 μM).
Setting [4] is: Table 2 (17β-HSD3), 1 μM, read-out: Intact cells (%) (1 μM).
[5] abbreviates: Table 2 (17β-HSD3), read-out: Homo (%) (0.1 μM).
Where [6] appears, read: Table 2 (17β-HSD3), 1 μM, read-out: Homo (%) (1 μM).
Setting [7] is: Table 2 (17β-HSD3), [14C]-Δ4-dione 50 nM into [14C]-T, read-out: Homo (%) (0.01 μM).
Where [8] appears, read: read-out: Intact cells (%) (1 μM), Table 2 (17β-HSD3), 1 μM.
Where [9] appears, read: read-out: Homo (%) (0.1 μM), Table 2 (17β-HSD3).
Setting [10] is: read-out: Homo (%) (1 μM), Table 2 (17β-HSD3), 1 μM.

Where two headings read alike, the source gives them in different places.

For the compound `C[C@]12CC[C@@]3(C[C@@H]1CC[C@@H]1[C@@H]2CC[C@]2(C)C(=O)CC[C@@H]12)CN(CCC(CN1CCOCC1)OC(=O)CCC1CCCC1)C(=O)O3` (stereo partly drawn) [Compound 4, reference compound], the inhibition at 0.1 µM in assay [1] (read-out: Intact cells (%) (0.1 μM), Table 4) was determined as 49%; in assay [2] (read-out: Homo (%) (0.1 μM), Table 4), 79%. Moreover, the inhibition at 0.01 µM in assay [2] (read-out: Homo (%) (0.01 μM), Table 4) came out at 2%. In assay [2] (read-out: Homo (%) (1.0 μM), Table 4, 1.0 μM), the inhibition at 1 µM stood at 94%.
In the case of `CN(Cc1ccccc1)C[C@@]1(O)CC[C@@]2(C)[C@@H](CC[C@@H]3[C@@H]2CC[C@]2(C)C(=O)CC[C@@H]32)C1` [Compound 7b, (3α,5α)-3-{[benzyl(methyl)amino]methyl}-3-hydroxyandrostan-17-one], the inhibition at 0.1 µM worked out at 48% in assay [1] (setting [3]) and 79% in assay [2] (setting [5]). In addition, the values for the inhibition at 1 µM in assay [1] (setting [4]) and in assay [2] (setting [6]) were 92% and 89%, respectively. In addition, the inhibition at 0.01 µM in assay [2] (setting [7]) was 28%.
Consider `CCN(CC)C[C@@]1(O)CC[C@@]2(C)[C@@H](CC[C@@H]3[C@@H]2CC[C@]2(C)C(=O)CC[C@@H]32)C1` [Compound 7c, (3α,5α)-3-[(diethylamino)methyl]-3-hydroxyandrostan-17-one], for which the inhibition at 1 µM in assay [1] (setting [4]) was found to be 14%; in assay [2] (setting [6]), 60%. Also, the inhibition at 0.1 µM in assay [2] (setting [5]) amounted to 10%. The inhibition at 0.01 µM in assay [2] (setting [7]) came to 0%.
For the compound `CCCCN(CCCC)C[C@@]1(O)CC[C@@]2(C)[C@@H](CC[C@@H]3[C@@H]2CC[C@]2(C)C(=O)CC[C@@H]32)C1` [Compound 7d, (3α,5α)-3-[(dibutylamino)methyl]-3-hydroxyandrostan-17-one], the inhibition at 0.1 µM turned out to be 53% in assay [1] (setting [3]) and 70% in assay [2] (setting [5]). Besides, the inhibition at 1 µM came to 90% in assay [1] (setting [4]) and 85% in assay [2] (setting [6]). For the same compound, the inhibition at 0.01 µM in assay [2] (setting [7]) was 13%.
For `C[C@]12CC[C@](O)(CN3CCCCC3)C[C@@H]1CC[C@@H]1[C@@H]2CC[C@]2(C)C(=O)CC[C@@H]12` [Compound 7e, (3α,5α)-3-hydroxy-3-(piperidin-1-ylmethyl)androstan-17-one], the inhibition at 1 µM in assay [1] (setting [8]) amounted to 23%; in assay [2] (setting [10]), 69%. The inhibition at 0.01 µM in assay [2] (setting [7]) was found to be 9%. Moreover, the inhibition at 0.1 µM in assay [2] (setting [9]) turned out to be 19%.
`C[C@]12CC[C@](O)(CN3CCC(Cc4ccccc4)CC3)C[C@@H]1CC[C@@H]1[C@@H]2CC[C@]2(C)C(=O)CC[C@@H]12` [Compound 7f, (3α,5α)-3-[(4-benzylpiperidin-1-yl)methyl]-3-hydroxyandrostan-17-one]: the inhibition at 1 µM amounted to 52% in assay [1] (setting [8]) and 90% in assay [2] (setting [10]). Also, in assay [2] (setting [7]), the inhibition at 0.01 µM was 40%. Also, in assay [2] (setting [9]), the inhibition at 0.1 µM turned out to be 82%.
`C[C@]12CC[C@](O)(CN3CCC(N4CCCCC4)CC3)C[C@@H]1CC[C@@H]1[C@@H]2CC[C@]2(C)C(=O)CC[C@@H]12` [Compound 7g, (3α,5α)-3-(1,4′-bipiperidin-1′-ylmethyl)-3-hydroxyandrostan-17-one]: the inhibition at 1 µM in assay [1] (setting [4]) came to 20%; in assay [2] (setting [6]), 69%. Further, the inhibition at 0.1 µM in assay [2] (setting [5]) was found to be 4%. In assay [2] (setting [7]), the inhibition at 0.01 µM amounted to 0%.
Regarding `CN1CCN(C[C@@]2(O)CC[C@@]3(C)[C@@H](CC[C@@H]4[C@@H]3CC[C@]3(C)C(=O)CC[C@@H]43)C2)CC1` [Compound 7h, (3α,5α)-3-hydroxy-3-[(4-methylpiperazin-1-yl)methyl]androstan-17-one], the inhibition at 0.1 µM in assay [1] (setting [3]) stood at 2%; in assay [2] (setting [5]), 0%. In addition, the inhibition at 1 µM in assay [2] (setting [6]) came to 40%. The inhibition at 0.01 µM in assay [2] (setting [7]) was found to be 0%.
Take `C[C@]12CC[C@](O)(CN3CCN(c4ccccc4)CC3)C[C@@H]1CC[C@@H]1[C@@H]2CC[C@]2(C)C(=O)CC[C@@H]12` [Compound 7i, (3α,5α)-3-hydroxy-3-[(4-phenylpiperazin-1-yl)methyl]androstan-17-one]: the inhibition at 1 µM in assay [1] (setting [8]) was 68%; in assay [2] (setting [10]), 89%. The inhibition at 0.01 µM in assay [2] (setting [7]) is 13%. Also, the inhibition at 0.1 µM in assay [2] (setting [9]) is 78%.
With `C[C@]12CC[C@](O)(CN3CCN(Cc4ccc(C(F)(F)F)cc4)CC3)C[C@@H]1CC[C@@H]1[C@@H]2CC[C@]2(C)C(=O)CC[C@@H]12` [Compound 10c, (3α,5α)-3-hydroxy-3-({4-[4-(trifluoromethyl)benzyl]piperazin-1-yl}methyl)androstan-17-one], the inhibition at 0.1 µM in assay [1] (Table 3, read-out: Intact cells (%) (0.1 μM)) amounted to 33%; in assay [2] (Table 3, read-out: Homo (%) (0.1 μM)) it was 81%. Besides, the inhibition at 0.01 µM in assay [2] (Table 3, read-out: Homo (%) (0.01 μM)) amounted to 14%.
In the case of `C[C@]12CC[C@](O)(CN3CCN(Cc4cc(C(F)(F)F)ccc4C(F)(F)F)CC3)C[C@@H]1CC[C@@H]1[C@@H]2CC[C@]2(C)C(=O)CC[C@@H]12` [Compound 10h, (3α,5α)-3-({4-[2,5-bis(trifluoromethyl)benzyl]piperazin-1-yl}methyl)-3-hydroxyandrostan-17-one], the “Intact cells (%) (0.1 μM)” value in assay [1] (Table 3) turned out to be 12%. Further, in assay [2] (Table 3), the “Homo (%) (0.01 μM)” value is listed as 18% and the “Homo (%) (0.1 μM)” value amounted to 85%.
On the same counts, the results for `C[C@]12CC[C@](O)(CN3CCN(Cc4ccc(C(F)(F)F)cc4C(F)(F)F)CC3)C[C@@H]1CC[C@@H]1[C@@H]2CC[C@]2(C)C(=O)CC[C@@H]12` [Compound 10i, (3α,5α)-3-({4-[2,4-bis(trifluoromethyl)benzyl]piperazin-1-yl}methyl)-3-hydroxyandrostan-17-one] are 16%, 22% and 75%.
Consider `C[C@]12CC[C@](O)(CN3CCN(Cc4cc(C(F)(F)F)cc(C(F)(F)F)c4)CC3)C[C@@H]1CC[C@@H]1[C@@H]2CC[C@]2(C)C(=O)CC[C@@H]12` [Compound 10j, (3α,5α)-3-({4-[3,5-bis(trifluoromethyl)benzyl]piperazin-1-yl}methyl)-3-hydroxyandrostan-17-one], for which the “Intact cells (%) (0.1 μM)” value in assay [1] (Table 3) is reported as 25%. Also, in assay [2] (Table 3), the “Homo (%) (0.01 μM)” value is 25% and the “Homo (%) (0.1 μM)” value came to 83%.
Take `CC1CN(C[C@@]2(O)CC[C@@]3(C)[C@@H](CC[C@@H]4[C@@H]3CC[C@]3(C)C(=O)CC[C@@H]43)C2)C(C)CN1Cc1cc(C(F)(F)F)ccc1C(F)(F)F` (stereo partly drawn) [Compound 11h, (3α,5α)-3-({(2ξ,5ξ)-4-[2,5-bis(trifluoromethyl)benzyl]-2,5-dimethylpiperazin-1-yl}methyl)-3-hydroxyandrostan-17-one]: in assay [1] (Table 3), the “Intact cells (%) (0.1 μM)” value was found to be 23%. Further, in assay [2] (Table 3), the “Homo (%) (0.01 μM)” value is recorded as 16% and the “Homo (%) (0.1 μM)” value came to 71%.
On the same counts, the results for `CC1CN(CC2(O)CCC3(C)C(CCC4C5CCC(=O)C5(C)CCC43)C2)C(C)CN1Cc1ccc(C(F)(F)F)cc1C(F)(F)F` (stereo not drawn) [Compound 11i, (3α,5α)-3-({(2ξ,5ξ)-4-[2,4-bis(trifluoromethyl)benzyl]-2,5-dimethylpiperazin-1-yl}methyl)-3-hydroxyandrostan-17-one] are 21%, 15% and 71%.
Take `CC1CN(C[C@@]2(O)CC[C@@]3(C)[C@@H](CC[C@@H]4[C@@H]3CC[C@]3(C)C(=O)CC[C@@H]43)C2)C(C)CN1Cc1cc(C(F)(F)F)cc(C(F)(F)F)c1` (stereo partly drawn) [Compound 11j, (3α,5α)-3-({(2ξ,5ξ)-4-[3,5-bis(trifluoromethyl)benzyl]-2,5-dimethylpiperazin-1-yl}methyl)-3-hydroxyandrostan-17-one]: in assay [1] (Table 3), the “Intact cells (%) (0.1 μM)” value worked out at 16%. In addition, in assay [2] (Table 3), the “Homo (%) (0.01 μM)” value came out at 25% and the “Homo (%) (0.1 μM)” value is on record as 74%.
With `C[C@]12CC[C@](O)(CN3CCN(C(=O)c4ccccc4)CC3)C[C@@H]1CC[C@@H]1[C@@H]2CC[C@]2(C)C(=O)CC[C@@H]12` [Compound 12a, (3α,5α)-3-hydroxy-3-{[4-(phenylcarbonyl)piperazin-1-yl]methyl}androstan-17-one], the inhibition at 0.1 µM in assay [1] (read-out: Intact cells (%) (0.1 μM), Table 3) turned out to be 50%; in assay [2] (read-out: Homo (%) (0.1 μM), Table 3), 76%. The inhibition at 0.01 µM in assay [2] (read-out: Homo (%) (0.01 μM), Table 3) was 17%.
For `C[C@]12CC[C@](O)(CN3CCN(C(=O)C4CCCCC4)CC3)C[C@@H]1CC[C@@H]1[C@@H]2CC[C@]2(C)C(=O)CC[C@@H]12` [Compound 12b, (3α,5α)-3-{[4-(cyclohexylcarbonyl)piperazin-1-yl]methyl}-3-hydroxyandrostan-17-one], the “Intact cells (%), tested at 1 μM” value in assay [1] (Table 3, footnote b, 1 μM) is “N/A (70)^b %”. In addition, in assay [2] (Table 3), the “Homo (%) (0.01 μM)” value is 19% and the “Homo (%) (0.1 μM)” value turned out to be 75%.
`C[C@]12CCC(=O)C=C1CC[C@@H]1[C@@H]2CC[C@]2(C)C(=O)CC[C@@H]12` [Δ^4-dione, 4-androstene-3,17-dione, reference compound] yielded an IC50 in assay [1] (intact HEK-293 cells overexpressing 17β-HSD3, [14C]-Δ4-dione 50 nM) of 337 nM.

As usually defined, the IC50 is the point on the concentration scale where inhibition reaches its midpoint. A lower IC50 goes with inhibition by little substance.

Values taken from patent publication US11072632B2, “Inhibitors of 17β-HSD1, 17β-HSD3 and 17β-HSD10” (UNIVERSITÉ LAVAL, priority 2011, dated 2021).
